According to patent US10935498B1, “Fluorescent probe for detecting nitroreductase and preparation method and use thereof in enzymatic reaction” (SOUTH CHINA UNIVERSITY OF TECHNOLOGY, priority 2018, dated 2021):

Key:
nitroreductase = experiment: Fluorescent response of the probe to nitroreductase (NTR) in PBS buffer; assay type: biochemical; details: probe 10 μM, excitation 500 nm
Protocol: 1.5 mg of the solid fluorescent compound, 3-(4-(2-(4′-(diphenylamino)-3-((4-nitrobenzyl)oxy)-[1,1′-biphenyl]-4-yl)vinyl)quinolin-1-ium-1-yl)propane-1-sulfonate (TAE-NQS, prepared in Example 1), was dissolved in 2 mL of DMSO, and prepared into a 1 mM stock solution of the fluorescent compound. Before the test, of the fluorescent compound was diluted with a phosphate buffer (10 mM, pH 7.4), and a solution system to be tested containing 1% DMSO was obtained (final concentration of the probe was 10 μM).
3 μL of the above-mentioned stock solution of the fluorescent compound was drawn, and a blank control sample and test samples were prepared with PBS buffer solution (10 mM, pH=7.4). […] The samples were incubated at 37° C. for 15 minutes, then the absorption spectra ranging from 350 nm to 700 nm were recorded, and the fluorescence spectra were measured under the excitation light of 500 nm. […]
When the concentration of NTR was 2 μg/mL and the concentration of the probe was 10 μM, the fluorescence intensity varied over time, shown as FIG. 7. […] By controlling the temperature to be 37° C. and the incubation time to be 5 minutes, the fluorescence spectra under the excitation wavelength of 500 nm for each test sample were recorded. […]

[1] = Solubility (stated property); assay type: physicochemical
[2] = Photostability (stated property); assay type: physicochemical
[3] = Toxicity (stated property)

SMILES: O=[N+]([O-])c1ccc(COc2cc(-c3ccc(N(c4ccccc4)c4ccccc4)cc3)ccc2C=Cc2cc[n+](CCCS(=O)(=O)[O-])c3ccccc23)cc1 [TAE-NQS, 3-(4-(2-(4′-(diphenylamino)-3-((4-nitrobenzyl)oxy)-[1,1′-biphenyl]-4-yl)vinyl)quinolin-1-ium-1-yl)propane-1-sulfonate]
- time in which the enzymatic reaction was completed (nitroreductase; NTR 0 μg/mL to 5 μg/mL, PBS pH 7.4, 37° C.): ≤ 30 min
- fluorescence intensity compared with the blank sample (nitroreductase; nitroreductase 2 μg/mL, NADH 100 μM, PBS 10 mM pH 7.4, 37° C., 15 minutes): changed significantly
- solubility in solvents such as DMSO and DMF ([1]; DMSO, DMF): easily soluble
- solubility in water ([1]; water): slightly soluble
- photostability [2]: good
- toxicity [3]: non-toxic
